# Measured values from paper PMC11012124, “Synthesis of Novel Triazine-Based Chalcones and 8,9-dihydro-7H-pyrimido[4,5-b][1,4]diazepines as Potential Leads in the Search of Anticancer, Antibacterial and Antifungal Agents” (International Journal of Molecular Sciences, 2024).
# Legend:
# [1] = Hemolytic activity, spectrophotometric; type: cell-based, human; conditions: human, human red blood cells (huRBC), 5% hematocrit, 200 μg/mL, 37 °C
# CCRF-CEM = assay: cells; conditions: Homo sapiens, 48 h; for CC50: read-out: LC50
# K-562 = assay: cells; conditions: Homo sapiens, K562, 48 h; for GI50: K-562, 48 h; for CC50: read-out: LC50
# MOLT-4 = assay: cells; conditions: Homo sapiens, MOLT-4, 48 h
# A549/ATCC = assay: cells; conditions: Homo sapiens, A549, 48 h; for CC50: read-out: LC50
# EKVX = assay: cells; conditions: Homo sapiens, 48 h; for CC50: read-out: LC50
# HOP-62 = assay: cells; conditions: Homo sapiens, HOP-62, 48 h; for CC50: read-out: LC50
# HOP-92 = assay: cells; conditions: Homo sapiens, HOP-92, 48 h; for CC50: read-out: LC50
# NCI-H23 = assay: cells; conditions: Homo sapiens, NCI-H23, 48 h; for CC50: read-out: LC50
# NCI-H460 = assay: cells; conditions: Homo sapiens, NCI-H460, 48 h; for CC50: read-out: LC50
# COLO 205 = assay: cells; conditions: Homo sapiens, COLO 205, 48 h; for CC50: read-out: LC50
# HCC-2998 = assay: cells; conditions: Homo sapiens, HCC 2998, 48 h; for CC50: read-out: LC50
# HCT-116 = assay: cells; conditions: Homo sapiens, HCT-116, 48 h; for CC50: read-out: LC50
# HCT-15 = assay: cells; conditions: Homo sapiens, HCT-15, 48 h; for CC50: read-out: LC50
# HT29 = assay: cells; conditions: Homo sapiens, HT-29, 48 h; for CC50: read-out: LC50
# KM12 = assay: cells; conditions: Homo sapiens, KM12, 48 h; for CC50: read-out: LC50
# SW-620 = assay: cells; conditions: Homo sapiens, SW-620, 48 h; for CC50: read-out: LC50
# SF-268 = assay: cells; conditions: Homo sapiens, SF-268, 48 h; for CC50: read-out: LC50
# SF-295 = assay: cells; conditions: Homo sapiens, SF-295, 48 h; for CC50: read-out: LC50
# U251 = assay: cells; conditions: Homo sapiens, U-251, 48 h; for GI50: U251, 48 h; for CC50: read-out: LC50
# LOX IMVI = assay: cells; conditions: Homo sapiens, 48 h; for CC50: read-out: LC50, LOX IMVI, 48 h
# MALME-3M = assay: cells; conditions: Homo sapiens, 48 h; for CC50: read-out: LC50
# SK-MEL-2 = assay: cells; conditions: Homo sapiens, SK-MEL-2, 48 h; for CC50: read-out: LC50
# SK-MEL-28 = assay: cells; conditions: Homo sapiens, SK-MEL-28, 48 h; for CC50: read-out: LC50
# SK-MEL-5 = assay: cells; conditions: Homo sapiens, SK-MEL-5, 48 h; for CC50: read-out: LC50
# IGROV1 = assay: cells; conditions: Homo sapiens, IGROV-1, 48 h; for CC50: read-out: LC50
# OVCAR-3 = assay: cells; conditions: Homo sapiens, OVCAR-3, 48 h; for CC50: read-out: LC50
# OVCAR-5 = assay: cells; conditions: Homo sapiens, OVCAR-5, 48 h; for CC50: read-out: LC50
# SK-OV-3 = assay: cells; conditions: Homo sapiens, SK-OV-3, 48 h; for CC50: read-out: LC50
# 786-0 = assay: cells; conditions: Homo sapiens, 786-0, 48 h; for CC50: read-out: LC50
# A498 = assay: cells; conditions: Homo sapiens, A498, 48 h; for CC50: read-out: LC50
# ACHN = assay: cells; conditions: Homo sapiens, 48 h; for CC50: read-out: LC50
# CAKI-1 = assay: cells; conditions: Homo sapiens, CAKI-1, 48 h; for CC50: read-out: LC50
# UO-31 = assay: cells; conditions: Homo sapiens, UO-31, 48 h; for CC50: read-out: LC50
# PC-3 = assay: cells; conditions: Homo sapiens, PC-3, 48 h; for CC50: read-out: LC50
# MDA-MB-231/ATCC = assay: cells; conditions: Homo sapiens, MDA-MB-231, 48 h
# T-47D = assay: cells; conditions: Homo sapiens, T47D, 48 h; for CC50: read-out: LC50
# RXF 393 = assay: cells; conditions: Homo sapiens, RXF 393, 48 h
structure (smiles),measurement,setting,value
COc1cc(/C=C/C(=O)c2cc(OC)c(OC)c(OC)c2)ccc1Oc1nc(Nc2ccc(F)cc2)nc(N(C)C)n1 [21d],"hemolysis at 24 h, 200 µg/mL",[1],8%
same,GI50,CCRF-CEM,2.19 µM
same,CC50,CCRF-CEM,> 100 µM
same,GI50,K-562,1.4 µM
same,CC50,K-562,> 100 µM
same,GI50,MOLT-4,0.472 µM
same,CC50,MOLT-4; read-out: LC50,> 100 µM
same,GI50,A549/ATCC,4.49 µM
same,CC50,A549/ATCC,54.7 µM
same,GI50,EKVX,2.15 µM
same,CC50,EKVX,31.1 µM
same,GI50,HOP-62,1.83 µM
same,CC50,HOP-62,8.22 µM
same,GI50,HOP-92,1.67 µM
same,CC50,HOP-92,50.9 µM
same,GI50,NCI-H23,1.63 µM
same,CC50,NCI-H23,8.08 µM
same,GI50,NCI-H460,1.45 µM
same,CC50,NCI-H460,7.53 µM
same,GI50,COLO 205,4.45 µM
same,CC50,COLO 205,47.5 µM
same,GI50,HCC-2998,2.03 µM
same,CC50,HCC-2998,8.52 µM
same,GI50,HCT-116,1.4 µM
same,CC50,HCT-116,7.24 µM
same,GI50,HCT-15,1.18 µM
same,CC50,HCT-15,6.39 µM
same,GI50,HT29,1.54 µM
same,CC50,HT29,8.22 µM
same,GI50,KM12,3.63 µM
same,CC50,KM12,> 100 µM
same,GI50,SW-620,1.55 µM
same,CC50,SW-620,6.89 µM
same,GI50,SF-268,3.43 µM
same,CC50,SF-268,> 100 µM
same,GI50,SF-295,1.98 µM
same,CC50,SF-295,19.6 µM
same,GI50,U251,0.503 µM
same,CC50,U251,9.59 µM
same,GI50,LOX IMVI,0.478 µM
same,CC50,LOX IMVI,4.11 µM
same,GI50,MALME-3M,1.75 µM
same,CC50,MALME-3M,11.1 µM
same,GI50,SK-MEL-2,1.69 µM
same,CC50,SK-MEL-2,8.47 µM
same,GI50,SK-MEL-28,1.8 µM
same,CC50,SK-MEL-28,9.23 µM
same,GI50,SK-MEL-5,2.16 µM
same,CC50,SK-MEL-5,12.2 µM
same,GI50,IGROV1,1.93 µM
same,CC50,IGROV1,12.2 µM
same,GI50,OVCAR-3,2.57 µM
same,CC50,OVCAR-3,> 100 µM
same,GI50,OVCAR-5,1.48 µM
same,CC50,OVCAR-5,11.6 µM
same,GI50,SK-OV-3,8.42 µM
same,CC50,SK-OV-3,97.4 µM
same,GI50,786-0,1.45 µM
same,CC50,786-0,7.19 µM
same,GI50,A498,3.99 µM
same,CC50,A498,38.9 µM
same,GI50,ACHN,2.3 µM
same,CC50,ACHN,50.6 µM
same,GI50,CAKI-1,1.98 µM
same,CC50,CAKI-1,25.1 µM
same,GI50,UO-31,1.12 µM
same,CC50,UO-31,4.96 µM
same,GI50,PC-3,2.77 µM
same,CC50,PC-3,> 100 µM
same,GI50,MDA-MB-231/ATCC,1.48 µM
same,CC50,MDA-MB-231/ATCC; read-out: LC50,8.63 µM
same,GI50,T-47D,1.87 µM
same,CC50,T-47D,> 100 µM
CN(C)c1nc(NCCNS(=O)(=O)c2ccc(C3=Nc4c(N)nc(N)nc4NC(c4ccc(F)cc4)C3)cc2)nc(Nc2ccc(F)cc2)n1 (stereo not drawn) [31f],"hemolysis at 24 h, 200 µg/mL",[1],2.4%
same,GI50,CCRF-CEM,3.99 µM
same,CC50,CCRF-CEM,> 100 µM
same,GI50,K-562,2.8 µM
same,CC50,K-562,> 100 µM
same,GI50,MOLT-4,2.45 µM
same,GI50,A549/ATCC,> 100 µM
same,CC50,A549/ATCC,> 100 µM
same,GI50,EKVX,5.17 µM
same,CC50,EKVX,> 100 µM
same,GI50,HOP-62,96 µM
same,CC50,HOP-62,> 100 µM
same,GI50,HOP-92,3.09 µM
same,CC50,HOP-92,23.3 µM
same,GI50,NCI-H23,54.1 µM
same,CC50,NCI-H23,> 100 µM
same,GI50,NCI-H460,4.74 µM
same,CC50,NCI-H460,> 100 µM
same,GI50,COLO 205,11.8 µM
same,CC50,COLO 205,> 100 µM
same,GI50,HCC-2998,4.22 µM
same,CC50,HCC-2998,> 100 µM
same,GI50,HCT-116,4.54 µM
same,CC50,HCT-116,> 100 µM
same,GI50,HCT-15,> 100 µM
same,CC50,HCT-15,> 100 µM
same,GI50,HT29,3.88 µM
same,CC50,HT29,> 100 µM
same,GI50,KM12,4.69 µM
same,CC50,KM12,> 100 µM
same,GI50,SW-620,8.27 µM
same,CC50,SW-620,> 100 µM
same,GI50,SF-268,4.83 µM
same,CC50,SF-268,> 100 µM
same,GI50,SF-295,6.71 µM
same,CC50,SF-295,> 100 µM
same,GI50,U251,6.35 µM
same,CC50,U251,> 100 µM
same,GI50,LOX IMVI,2.62 µM
same,CC50,LOX IMVI,9.13 µM
same,GI50,MALME-3M,6.28 µM
same,CC50,MALME-3M,> 100 µM
same,GI50,SK-MEL-2,8.17 µM
same,CC50,SK-MEL-2,29 µM
same,GI50,SK-MEL-28,15.7 µM
same,CC50,SK-MEL-28,> 100 µM
same,GI50,SK-MEL-5,3.36 µM
same,CC50,SK-MEL-5,14.9 µM
same,GI50,IGROV1,5.01 µM
same,CC50,IGROV1,> 100 µM
same,GI50,OVCAR-3,8.09 µM
same,CC50,OVCAR-3,> 100 µM
same,GI50,OVCAR-5,> 100 µM
same,CC50,OVCAR-5,> 100 µM
same,GI50,SK-OV-3,> 100 µM
same,CC50,SK-OV-3,> 100 µM
same,GI50,786-0,4.77 µM
same,CC50,786-0,> 100 µM
same,GI50,A498,22.1 µM
same,CC50,A498,> 100 µM
same,GI50,ACHN,> 100 µM
same,CC50,ACHN,> 100 µM
same,GI50,CAKI-1,6.5 µM
same,CC50,CAKI-1,> 100 µM
same,GI50,RXF 393,2.48 µM
same,GI50,UO-31,> 100 µM
same,CC50,UO-31,> 100 µM
same,GI50,PC-3,5.04 µM
same,CC50,PC-3,> 100 µM
same,GI50,T-47D,4.86 µM
same,CC50,T-47D,> 100 µM
